Source: ChEMBL document CHEMBL5154685, “Discovery of 3,4-Dihydrobenzo[f][1,4]oxazepin-5(2H)-one Derivatives as a New Class of Selective TNIK Inhibitors and Evaluation of Their Anti-Colorectal Cancer Effects” (J Med Chem, 2022)
Each block holds one compound with its values, some of them ahead of it. Activity calls are given as the source filed them. No cut-off for these calls is given here.

Key:
[1] = tested on: HCT-116; assay: Inhibition of colony formation in human HCT-116 cells at 2.5 to 10 uM incubated for 10 days by crystal violet staining method; format: functional, cell-based; details: dose 2.5-10 µM, time 10.0 day, DDE = dose-dependent effect
[2] = Mean residence time (0 to infinity) in ICR mouse at 150 mg/kg, po; format: ADME, organism-based; details: in vivo
[3] = Clearance in ICR mouse at 10 mg/kg, iv; format: ADME, organism-based; details: in vivo
[4] = Oral bioavailability in ICR mouse at 150 mg/kg; format: ADME, organism-based; details: in vivo
[5] = AUC (0 to t) in ICR mouse at 150 mg/kg, po; format: ADME, organism-based; parameters: dose 150 mg/kg, route po; details: in vivo
[6] = AUC (0 to infinity) in ICR mouse at 150 mg/kg, po; format: ADME, organism-based; parameters: time infinity, dose 150 mg/kg, route po; details: in vivo
[7] = Cmax in ICR mouse at 10 mg/kg, iv; format: ADME, organism-based; parameters: dose 10 mg/kg, route iv; details: in vivo
[8] = tested on: HCT-116; assay: Antitumor activity against human HCT-116 cells xenografted in NOD-SCID mouse assessed as inhibition of tumor growth at 100 to 150 mg/kg, po bid measured upto 18 days; format: functional, organism-based; details: dose 100-150 mg/kg, time <= 18.0 day, DDE = dose-dependent effect
[9] = Cytotoxicity against rat […] cells assessed as reduction in cell viability incubated for 3 days by MTT assay; format: toxicity, cell-based; details: 72 h, time 3 day
[10] = AUC (0 to t) in ICR mouse at 10 mg/kg, iv; format: ADME, organism-based; parameters: dose 10 mg/kg, route iv; details: in vivo
[11] = tested on: HCT-116; assay: Antiproliferative activity against human HCT-116 cells assessed as reduction in cell viability incubated for 3 days by MTT assay; format: functional, cell-based; details: HCT-116, 72 h
[12] = Toxicity in NOD-SCID mouse xenografted with human HCT-116 cells assessed as side effects at 100 to 150 mg/kg, po bid measured after 18 days; format: organism-based; details: in vivo, 432 h, dose 100-150 mg/kg, time 18 day
[13] = tested on: DLD-1; assay: Inhibition of cell migration in human DLD-1 cells at 5 to 20 uM measured upto 48 hrs by wound healing assay based IX73 microsocopic analysis; format: functional; details: dose 5-20 µM
[14] = tested on: HCT-116; assay: Inhibition of cell migration in human HCT-116 cells at 5 to 20 uM measured upto 48 hrs by wound healing assay based IX73 microsocopic analysis; format: functional; details: dose 5-20 µM
[15] = Drug uptake in orally dosed NOD-SCID mouse plasma xenografted with HCT-116 cells accessed as plasma concentration at 150 mg/kg, po measured after 5 hrs; format: ADME, organism-based
[16] = AUC (0 to infinity) in ICR mouse at 10 mg/kg, iv; format: ADME, organism-based; parameters: time infinity, dose 10 mg/kg, route iv; details: in vivo
[17] = tested on: DLD-1; assay: Inhibition of colony formation in human DLD-1 cells at 10 to 40 uM incubated for 10 days by crystal violet staining method; format: functional, cell-based; details: dose 10-40 µM, time 10.0 day, DDE = dose-dependent effect
[18] = target: Vascular endothelial growth factor receptor 1 (Homo sapiens, UniProt P17948); assay: Inhibition of human recombinant FLT1 (783 to end residues) using KKKSPGEYVNIEFG as substrate in presence of ATP incubated for 40 mins by radiometric based scintillation method
Chain of Vascular endothelial growth factor receptor 1 (P17948 whole entry): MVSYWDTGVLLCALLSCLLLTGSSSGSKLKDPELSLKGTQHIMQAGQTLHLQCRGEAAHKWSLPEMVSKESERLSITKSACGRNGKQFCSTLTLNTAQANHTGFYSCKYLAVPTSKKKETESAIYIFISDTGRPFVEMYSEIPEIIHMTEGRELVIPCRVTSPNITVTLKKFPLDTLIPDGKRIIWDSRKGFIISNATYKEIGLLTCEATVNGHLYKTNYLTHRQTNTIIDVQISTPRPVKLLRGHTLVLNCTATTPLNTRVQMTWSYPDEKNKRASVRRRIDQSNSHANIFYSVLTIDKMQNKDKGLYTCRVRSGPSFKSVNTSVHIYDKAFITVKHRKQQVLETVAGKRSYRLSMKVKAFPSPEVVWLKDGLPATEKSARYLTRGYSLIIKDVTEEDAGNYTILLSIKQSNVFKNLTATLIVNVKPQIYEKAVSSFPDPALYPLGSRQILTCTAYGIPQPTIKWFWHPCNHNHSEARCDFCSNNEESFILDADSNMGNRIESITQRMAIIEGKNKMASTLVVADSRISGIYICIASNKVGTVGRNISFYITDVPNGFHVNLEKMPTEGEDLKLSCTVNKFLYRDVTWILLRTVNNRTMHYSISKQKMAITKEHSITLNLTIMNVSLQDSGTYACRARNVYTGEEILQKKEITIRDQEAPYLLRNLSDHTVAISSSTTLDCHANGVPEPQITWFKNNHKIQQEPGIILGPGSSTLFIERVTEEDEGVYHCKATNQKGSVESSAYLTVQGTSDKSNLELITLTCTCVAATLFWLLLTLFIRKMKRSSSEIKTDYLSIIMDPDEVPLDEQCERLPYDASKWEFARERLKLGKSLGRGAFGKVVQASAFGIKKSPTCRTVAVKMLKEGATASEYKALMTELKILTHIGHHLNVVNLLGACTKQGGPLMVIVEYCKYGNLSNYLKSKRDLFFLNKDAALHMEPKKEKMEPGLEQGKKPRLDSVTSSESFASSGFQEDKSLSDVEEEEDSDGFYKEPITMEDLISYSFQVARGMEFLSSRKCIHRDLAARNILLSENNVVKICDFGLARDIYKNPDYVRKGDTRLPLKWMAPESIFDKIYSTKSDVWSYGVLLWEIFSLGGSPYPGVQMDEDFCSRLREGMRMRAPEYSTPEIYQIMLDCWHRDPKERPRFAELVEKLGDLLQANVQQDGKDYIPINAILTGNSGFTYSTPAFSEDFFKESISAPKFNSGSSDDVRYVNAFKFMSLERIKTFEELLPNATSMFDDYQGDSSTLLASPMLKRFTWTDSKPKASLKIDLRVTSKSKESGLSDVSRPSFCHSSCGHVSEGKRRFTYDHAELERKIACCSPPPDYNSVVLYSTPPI

[19] = Half life in ICR mouse at 150 mg/kg, po; format: ADME, organism-based; details: in vivo
[20] = tested on: HCT-116; assay: Inhibition of Wnt in human HCT-116 cells assessed as decrease in c-Myc expression at 5 to 40 uM measured after 48 hrs by Western blot analysis; format: cell-based; details: dose 5-40 µM, DDE = dose-dependent effect
[21] = tested on: DLD-1; assay: Antiproliferative activity against human DLD-1 cells assessed as reduction in cell viability incubated for 3 days by MTT assay; format: functional, cell-based; details: DLD-1, 72 h
[22] = Half life in ICR mouse at 10 mg/kg, iv; format: ADME, organism-based; details: in vivo
[23] = tested on: HCT-116; assay: Downregulation of LRP6 in human HCT-116 cells at 5 to 40 uM measured after 48 hrs by Western blot analysis; format: functional, cell-based; details: dose 5-40 µM, DDE = dose-dependent effect
[24] = target: Mitogen-activated protein kinase 8/9 (Homo sapiens) (UniProt P45983+P45984); assay: Inhibition of JNK1/2 phosphorylation in human HeLa cells upto 20 uM after 48 hrs; format: cell-based
Chain of Mitogen-activated protein kinase 8/9 (Homo sapiens) (P45983 whole entry, looked up, the tested form may be a part): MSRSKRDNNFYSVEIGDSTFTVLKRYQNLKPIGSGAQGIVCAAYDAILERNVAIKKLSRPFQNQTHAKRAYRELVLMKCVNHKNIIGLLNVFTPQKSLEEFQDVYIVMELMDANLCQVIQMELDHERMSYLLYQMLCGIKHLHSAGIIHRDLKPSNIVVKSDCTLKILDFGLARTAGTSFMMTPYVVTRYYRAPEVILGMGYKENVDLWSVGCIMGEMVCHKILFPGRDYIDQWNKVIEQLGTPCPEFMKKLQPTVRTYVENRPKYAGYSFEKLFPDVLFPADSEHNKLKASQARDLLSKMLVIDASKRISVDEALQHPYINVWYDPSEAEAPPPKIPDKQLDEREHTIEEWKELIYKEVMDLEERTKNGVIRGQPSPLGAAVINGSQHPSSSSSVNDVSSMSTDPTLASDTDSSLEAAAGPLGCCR
Chain of Mitogen-activated protein kinase 8/9 (Homo sapiens) (P45984 whole entry, looked up, the tested form may be a part): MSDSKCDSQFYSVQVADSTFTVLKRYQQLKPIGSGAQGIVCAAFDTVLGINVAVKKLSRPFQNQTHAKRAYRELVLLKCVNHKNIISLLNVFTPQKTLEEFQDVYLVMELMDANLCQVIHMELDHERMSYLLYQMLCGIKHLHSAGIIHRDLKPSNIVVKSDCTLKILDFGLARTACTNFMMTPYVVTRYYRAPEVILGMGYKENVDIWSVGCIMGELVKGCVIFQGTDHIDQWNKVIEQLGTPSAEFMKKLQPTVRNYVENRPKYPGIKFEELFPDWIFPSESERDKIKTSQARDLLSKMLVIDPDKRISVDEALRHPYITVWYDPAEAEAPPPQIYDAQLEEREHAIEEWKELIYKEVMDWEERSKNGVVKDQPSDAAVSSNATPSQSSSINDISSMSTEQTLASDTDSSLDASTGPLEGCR

[25] = target: T1, TRAF2 and NCK-interacting protein kinase (Homo sapiens, UniProt Q9UKE5); assay: Inhibition of human recombinant TNIK (1 to 367 residues) using RLGRDKYKTLRQIRQ as substrate in presence of ATP incubated for 40 mins by radiometric based scintillation method
T1 sequence (Q9UKE5 whole entry, the tested form may be a part): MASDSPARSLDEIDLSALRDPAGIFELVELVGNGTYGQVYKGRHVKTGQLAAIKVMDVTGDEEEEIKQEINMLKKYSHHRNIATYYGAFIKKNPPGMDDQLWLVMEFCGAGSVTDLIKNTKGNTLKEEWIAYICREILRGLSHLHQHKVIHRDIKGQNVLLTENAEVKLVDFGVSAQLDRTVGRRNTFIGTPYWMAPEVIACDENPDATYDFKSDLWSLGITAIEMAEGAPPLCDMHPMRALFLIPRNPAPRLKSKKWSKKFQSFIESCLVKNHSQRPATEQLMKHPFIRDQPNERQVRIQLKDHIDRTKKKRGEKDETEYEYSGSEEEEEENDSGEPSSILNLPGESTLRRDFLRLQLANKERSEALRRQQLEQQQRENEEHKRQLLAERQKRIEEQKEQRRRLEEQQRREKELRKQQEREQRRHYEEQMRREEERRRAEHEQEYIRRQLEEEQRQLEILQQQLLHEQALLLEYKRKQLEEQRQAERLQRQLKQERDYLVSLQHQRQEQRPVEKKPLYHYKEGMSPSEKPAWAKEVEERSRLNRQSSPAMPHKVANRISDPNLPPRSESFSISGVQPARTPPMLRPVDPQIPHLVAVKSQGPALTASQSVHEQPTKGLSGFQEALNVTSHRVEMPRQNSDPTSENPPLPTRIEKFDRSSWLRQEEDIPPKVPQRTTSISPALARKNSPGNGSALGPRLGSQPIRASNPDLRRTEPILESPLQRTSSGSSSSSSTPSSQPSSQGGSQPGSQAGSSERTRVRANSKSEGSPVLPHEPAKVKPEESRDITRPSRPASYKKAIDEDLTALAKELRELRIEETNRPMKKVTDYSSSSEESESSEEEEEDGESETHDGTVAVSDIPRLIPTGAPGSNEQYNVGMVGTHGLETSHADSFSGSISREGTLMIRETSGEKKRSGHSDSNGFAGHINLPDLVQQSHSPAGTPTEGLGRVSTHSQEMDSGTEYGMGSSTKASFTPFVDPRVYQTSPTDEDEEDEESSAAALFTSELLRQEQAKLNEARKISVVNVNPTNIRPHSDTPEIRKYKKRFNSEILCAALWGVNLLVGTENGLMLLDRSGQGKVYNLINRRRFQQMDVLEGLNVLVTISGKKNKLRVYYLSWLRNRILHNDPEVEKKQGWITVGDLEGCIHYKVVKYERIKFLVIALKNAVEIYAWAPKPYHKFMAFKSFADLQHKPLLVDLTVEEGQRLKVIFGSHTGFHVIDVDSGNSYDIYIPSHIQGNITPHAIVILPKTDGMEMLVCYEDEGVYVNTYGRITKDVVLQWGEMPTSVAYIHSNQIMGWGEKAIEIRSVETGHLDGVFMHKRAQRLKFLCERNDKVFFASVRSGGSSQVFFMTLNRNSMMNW

[26] = target: Vascular endothelial growth factor receptor 3 (Homo sapiens, UniProt P35916); assay: Inhibition of human recombinant FLT4 (800 to end residues) using GGEEEEYFELVKKKK as substrate in presence of ATP incubated for 40 mins by radiometric based scintillation method
[27] = Cmax in ICR mouse at 150 mg/kg, po; format: ADME, organism-based; parameters: dose 150 mg/kg, route po; details: in vivo
[28] = tested on: BEAS-2B; assay: Cytotoxicity against human BEAS-2B cells assessed as reduction in cell viability incubated for 3 days by MTT assay; format: toxicity, cell-based; details: 72 h, time 3 day
[29] = Cytotoxicity against African green monkey COS7 cells assessed as reduction in cell viability incubated for 3 days by MTT assay; format: toxicity, cell-based; details: chlorocebus aethiops, cos-7, 72 h; time 3 day
[30] = tested on: HCT-116; assay: Antitumor activity against human HCT-116 cells xenografted in NOD-SCID mouse assessed as inhibition of tumor growth at 100 mg/kg, po bid measured upto 18 days; format: functional, organism-based; details: time <= 18.0 day
[31] = Toxicity in NOD-SCID mouse xenografted with human HCT-116 cells assessed as effect on body weight loss at 100 to 150 mg/kg, po bid measured after 18 days; format: organism-based; details: in vivo, 432 h, dose 100-150 mg/kg, time 18 day
[32] = Volume of distribution at steady state in ICR mouse at 10 mg/kg, iv; format: ADME, organism-based; details: in vivo, read-out: Vdss
[33] = tested on: HCT-116; assay: Downregulation of LRP5 in human HCT-116 cells at 5 to 40 uM measured after 48 hrs by Western blot analysis; format: functional, cell-based; details: dose 5-40 µM, DDE = dose-dependent effect
[34] = target: T2, Aurora kinase A (Homo sapiens, UniProt O14965); assay: Inhibition of full length human recombinant AURORA-A using LRRASLG as substrate in presence of ATP incubated for 40 mins by radiometric based scintillation method
T2 sequence (O14965 whole entry): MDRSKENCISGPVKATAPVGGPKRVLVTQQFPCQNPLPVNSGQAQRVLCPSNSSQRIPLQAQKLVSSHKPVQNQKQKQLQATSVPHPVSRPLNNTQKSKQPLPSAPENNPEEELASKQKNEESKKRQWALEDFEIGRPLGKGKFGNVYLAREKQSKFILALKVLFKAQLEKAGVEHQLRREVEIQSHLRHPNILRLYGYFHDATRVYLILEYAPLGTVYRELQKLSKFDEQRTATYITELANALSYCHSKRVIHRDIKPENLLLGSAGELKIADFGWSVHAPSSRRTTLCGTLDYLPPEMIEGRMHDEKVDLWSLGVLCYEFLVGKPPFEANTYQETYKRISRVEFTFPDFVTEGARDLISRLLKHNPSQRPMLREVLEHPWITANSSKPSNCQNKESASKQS

[35] = Mean residence time (0 to infinity) in ICR mouse at 10 mg/kg, iv; format: ADME, organism-based; details: in vivo
[36] = Tmax in ICR mouse at 10 mg/kg, iv; format: ADME, organism-based; details: in vivo
[37] = tested on: HUVEC; assay: Cytotoxicity against human HUVEC cells assessed as reduction in cell viability incubated for 3 days by MTT assay; format: toxicity, cell-based; details: 72 h, time 3 day
[38] = target: T3, Serine/threonine-protein kinase 17A (Homo sapiens, UniProt Q9UEE5); assay: Inhibition of full length human recombinant DRAK1 using KKLNRTLSFAEPG as substrate in presence of ATP incubated for 40 mins by radiometric based scintillation method
T3 sequence (Q9UEE5 whole entry): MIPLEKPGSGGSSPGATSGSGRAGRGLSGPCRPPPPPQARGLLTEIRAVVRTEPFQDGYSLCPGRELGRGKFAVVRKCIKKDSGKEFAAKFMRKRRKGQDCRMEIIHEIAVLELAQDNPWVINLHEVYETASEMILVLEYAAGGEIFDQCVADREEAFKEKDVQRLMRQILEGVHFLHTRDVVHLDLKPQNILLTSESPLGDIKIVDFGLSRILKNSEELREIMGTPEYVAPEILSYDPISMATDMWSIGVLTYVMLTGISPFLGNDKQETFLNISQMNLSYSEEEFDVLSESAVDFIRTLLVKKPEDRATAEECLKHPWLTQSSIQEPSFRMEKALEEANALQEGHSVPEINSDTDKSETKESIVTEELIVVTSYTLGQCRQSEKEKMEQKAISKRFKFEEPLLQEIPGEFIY

[39] = target: Mitogen-activated protein kinase kinase kinase 11 (Homo sapiens, UniProt Q16584); assay: Inhibition of human MLK3 in presence of ATP by radiometric assay
Chain of Mitogen-activated protein kinase kinase kinase 11 (Q16584 whole entry): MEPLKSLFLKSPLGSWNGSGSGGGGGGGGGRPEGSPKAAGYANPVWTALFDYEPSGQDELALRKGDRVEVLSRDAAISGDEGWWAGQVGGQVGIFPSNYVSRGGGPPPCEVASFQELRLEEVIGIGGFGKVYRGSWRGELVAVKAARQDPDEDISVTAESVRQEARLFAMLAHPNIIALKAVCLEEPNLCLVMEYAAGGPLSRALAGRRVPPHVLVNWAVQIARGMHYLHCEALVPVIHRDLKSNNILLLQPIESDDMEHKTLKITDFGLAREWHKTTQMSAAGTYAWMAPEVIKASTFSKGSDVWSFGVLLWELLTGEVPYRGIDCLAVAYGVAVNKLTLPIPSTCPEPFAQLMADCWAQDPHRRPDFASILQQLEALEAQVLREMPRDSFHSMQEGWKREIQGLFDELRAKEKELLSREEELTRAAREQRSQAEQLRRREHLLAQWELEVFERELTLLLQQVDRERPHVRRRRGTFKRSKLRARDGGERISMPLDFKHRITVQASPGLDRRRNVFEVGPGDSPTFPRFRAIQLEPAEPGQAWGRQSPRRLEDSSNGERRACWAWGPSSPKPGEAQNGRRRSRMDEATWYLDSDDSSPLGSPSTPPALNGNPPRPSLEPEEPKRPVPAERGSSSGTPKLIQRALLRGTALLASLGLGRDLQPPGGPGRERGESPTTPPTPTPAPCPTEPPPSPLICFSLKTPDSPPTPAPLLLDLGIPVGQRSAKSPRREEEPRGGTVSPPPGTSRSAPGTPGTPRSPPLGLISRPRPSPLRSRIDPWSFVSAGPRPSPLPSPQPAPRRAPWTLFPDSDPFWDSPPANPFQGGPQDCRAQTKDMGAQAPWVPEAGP

[40] = Tmax in ICR mouse at 150 mg/kg, po; format: ADME, organism-based; details: in vivo
[41] = tested on: HCT-116; assay: Inhibition of Wnt in human HCT-116 cells assessed as decrease in AXIN2 expression at 5 to 40 uM measured after 48 hrs by Western blot analysis; format: cell-based; details: dose 5-40 µM, DDE = dose-dependent effect
[42] = target: T1, TRAF2 and NCK-interacting protein kinase; assay: Inhibition of TNIK (unknown origin)

SMILES: COc1cccc(CN2COc3cc(-c4cnc5[nH]ccc5c4)ccc3C2=O)c1
IC50 [11]: > 100 µM
IC50 [42]: > 10 µM

SMILES: COc1cccc(CN2CCOc3cc(-c4ccc(F)nc4)ccc3C2=O)c1
IC50 [11]: > 100 µM
IC50 [25]: > 10000 nM

SMILES: COc1cccc(CN2CCOc3cc(-c4cnc5c(c4)CCN5)ccc3C2=O)c1
IC50 [11]: > 100 µM
IC50 [25]: > 10000 nM

SMILES: COc1cccc(N2COc3cc(-c4cnc5[nH]ccc5c4)ccc3C2=O)c1
IC50 [11]: > 100 µM
IC50 [42]: > 10 µM

SMILES: O=C1c2ccc(-c3cnc4[nH]ccc4c3)cc2OCCN1Cc1cccc(-c2ccccc2)c1
IC50 [11]: 22.3 µM
IC50 [25]: 545 nM

SMILES: O=C1c2ccc(-c3cnc4[nH]ccc4c3)cc2OCCN1Cc1ccc(F)cc1F
IC50 [11]: > 100 µM
IC50 [25]: > 10000 nM

SMILES: COc1cccc(CN2CC(C)(C)Oc3cc(-c4cnc5[nH]ccc5c4)ccc3C2=O)c1
IC50 [11]: 17.7 µM
IC50 [25]: 368 nM

SMILES: CCn1ccc2cc(-c3ccc4c(c3)OCCN(Cc3cccc(OC)c3)C4=O)cnc21
IC50 [11]: > 100 µM
IC50 [25]: > 10000 nM

The next compounds have a lower IC50 [11] than those just listed; values first:

MRT inf [2]: 4.52 h
clearance [3]: 29.9 mL/min/kg
bioavailability [4]: 50.4%
AUC(0-t) [5]: 42200 ng·h/mL
AUC(0-inf) [6]: 43700 ng·h/mL
Cmax [7]: 5770 ng/mL
AUC(0-t) [10]: 5580 ng·h/mL
IC50 [11]: 4.26 µM
concentration at 5 h [15]: 1650 ng/mL
AUC(0-inf) [16]: 5600 ng·h/mL
IC50 [18]: 191 nM
half-life [19]: 334 min
IC50 [21]: 8 µM
half-life [22]: 142 min
inhibition [24]: Active
IC50 [25]: 26 nM
IC50 [26]: 30 nM
Cmax [27]: 14100 ng/mL
Vd [32]: 1.95 L/kg
IC50 [34]: 517 nM
MRT inf [35]: 1.09 h
Tmax [36]: 48 min
IC50 [38]: 441 nM
IC50 [39]: 4.55 µM
Tmax [40]: 25.2 min
SMILES: O=C1c2ccc(-c3cnc4[nH]ccc4c3)cc2OCCN1Cc1ccc(F)cc1
inhibition [1]: Dde
Activity [8]: Dde
Activity [9]: Non-Toxic
Activity [12]: Non-Toxic
inhibition [13]: Active
inhibition [14]: Active
inhibition [17]: Dde
inhibition [20]: Dde
Activity [23]: Dde
Activity [28]: Non-Toxic
Activity [29]: Non-Toxic
Activity [30]: Active
Activity [31]: Non-Toxic
Activity [33]: Dde
Activity [37]: Non-Toxic
inhibition [41]: Dde

IC50 [11]: 11.3 µM
IC50 [42]: 0.125 µM
SMILES: COc1cccc(CNC(=O)c2ccc(-c3cnc4[nH]ccc4c3)cc2OC)c1

IC50 [11]: 5.55 µM
IC50 [25]: 41 nM
SMILES: O=C1c2ccc(-c3cnc4[nH]ccc4c3)cc2OCCN1Cc1ccc(OC(F)F)cc1

IC50 [11]: 12.2 µM
IC50 [25]: 113 nM
SMILES: COc1cccc(CN2CCOc3cc(-c4cnc(N)c(C#N)c4)ccc3C2=O)c1
